EP4520824A1, “DEO[…] GENERATES FL[…] USES THEREOF” (Ústav organické chemie a biochemie Akademie ved Ceske …, priority 2023, dated 2025)

Tested on: chromogenic deoxyribozyme, optimized variant (Chro 4, SEQ ID NO: 39)
Assay: Self-phosphorylation kinetics of chromogenic deoxyribozyme with 4-NPP (ligation assay)
Assay type: biochemical
Conditions: self-phosphorylation with 4-NPP as substrate; 200 mM KCl, 1 mM ZnCl2, 50 mM HEPES pH 7.4

O=[N+]([O-])c1ccc(OP(=O)(O)O)cc1 [4-NPP, 4-nitrophenyl phosphate]
catalytic efficiency: ~10^3 M^-1 min^-1
